Experimental data taken from patent US12590100B2, “Tetrahydro-spiroindoline-pyrrolopyrrole-triones inhibitors of the NRF2-β-TrCP interaction for use in the treatment of fatty liver disease” (Universidad Autonoma De Madrid, priority 2021, dated 2026).

Tests used:
[1] = HPLC-MS detection of PHAR in liver after IP injection; assay type: in vivo, mouse; details: mice, single IP 50 mg/kg, 120 min
Method: FIG. 9. PHAR activates NRF2 and HO-1 in liver. A), UV and MS spectrum derived from the HPLC-MS analysis of PHAR dissolved in methanol for the identification of peaks associated with the compound. A blue rectangle surrounds the mass associated with PHAR. (B-D), the mice were treated with the vehicle (Tween-80+PBS, 1:13), 50 mg/kg of PHAR, or 50 mg/kg of SFN (saline) as a positive control by means of intraperitoneal (IP) injection for 2 hours. B), HPLC-MS UV and MS spectra derived from representative liver samples of both experimental groups used for determining PHAR levels in the liver 120 min after a single IP injection of 50 mg/kg. A blue rectangle surrounds the mass associated with PHAR. C), representative immunoblots showing NRF2, HO1, and LAMINB protein levels as the liver extract loading control. D), densitometric analysis of NRF2 protein levels of the representative immunoblots shown in (C), expressed as a ratio of NRF2/LAMINB. Statistical analysis was performed with one-way ANOVA followed by the Bonferroni test to compare inter-group differences. ***p<0.001 vs. vehicle. […] F), densitometric analysis of NRF2 and HO1 protein levels in the liver tissue of the representative immunoblots shown in (E), expressed as a ratio of NRF2/LAMINB or HO1/LAMINB levels. […]
Once the mechanism of action of PHAR was deciphered, the capacity thereof to induce NRF2 levels in a murine model was evaluated. […]

NRF2 = NRF2 and HO-1 protein levels in mouse tissues after IP treatment; assay type: in vivo; details: C57BL/6 mice
Method: FIG. 9. PHAR activates NRF2 and HO-1 in liver. A), UV and MS spectrum derived from the HPLC-MS analysis of PHAR dissolved in methanol for the identification of peaks associated with the compound. A blue rectangle surrounds the mass associated with PHAR. (B-D), the mice were treated with the vehicle (Tween-80+PBS, 1:13), 50 mg/kg of PHAR, or 50 mg/kg of SFN (saline) as a positive control by means of intraperitoneal (IP) injection for 2 hours. B), HPLC-MS UV and MS spectra derived from representative liver samples of both experimental groups used for determining PHAR levels in the liver 120 min after a single IP injection of 50 mg/kg. A blue rectangle surrounds the mass associated with PHAR. C), representative immunoblots showing NRF2, HO1, and LAMINB protein levels as the liver extract loading control. D), densitometric analysis of NRF2 protein levels of the representative immunoblots shown in (C), expressed as a ratio of NRF2/LAMINB. Statistical analysis was performed with one-way ANOVA followed by the Bonferroni test to compare inter-group differences. ***p<0.001 vs. vehicle. E) and F), the mice were treated daily with vehicle (Tween-80+PBS, 1:13) or 50 mg/kg of PHAR by means of intraperitoneal injection for 5 days. E), representative immunoblots showing NRF2, HO1, and LAMINB protein levels as loading control in brain, liver and kidney. F), densitometric analysis of NRF2 and HO1 protein levels in the liver tissue of the representative immunoblots shown in (E), expressed as a ratio of NRF2/LAMINB or HO1/LAMINB levels. Statistical analysis was performed with a Student t test to compare inter-group differences. **p<0.01 vs. vehicle.
Once the mechanism of action of PHAR was deciphered, the capacity thereof to induce NRF2 levels in a murine model was evaluated. C57BL/6 mice received a single intraperitoneal (IP) injection of 50 mg/kg PHAR (Tween-80+PBS, 1:13) or 50 mg/kg of SFN (saline) as a positive control. The UV spectrum derived from the HPLC-MS study of the PHAR compound dissolved in methanol alone helped the identification of the peak associated with the compound for subsequent identification in the tissue analysis. […] Taking this as a reference point, liver tissue analysis was performed to check for the presence of PHAR therein.
For this reason, C57BL/6 mice were treated daily by IP route for 5 days with 50 mg/kg of vehicle or 50 mg/kg of PHAR.

STAM mice (NAFLD) = test: STAM fatty liver model, treatment from NASH stage (week 8) to week 10; assay type: in vivo, mouse
Source text: FIG. 13. PHAR slows fatty liver progression. The progressive damage of liver cells as a consequence of their metabolic alteration and chronic low-grade inflammation leads to their progression towards fibrosis and the consequent loss of liver function. The present invention makes it possible to treat patients diagnosed with fatty liver to prevent its progression towards more severe forms of liver disease such as fibrosis and cirrhosis. A) Scheme of the liver damage progression model. B) Representative spectra derived from MRI studies. At starting point (week 8; W8, NASH inflammation), mice subjected to the STAM protocol had fatty liver imitating the status of newly diagnosed patients. At this point, treatment with PHAR (50 mg/kg i.p; 5 days per week) began until week 10 (W10, fibrosis). C) standardized quantification of the amount of liver fat per mouse measured by MRI. Statistical analysis was performed using a two-way ANOVA followed by a Bonferroni test to compare the differences between treatments in control and STAM groups. **p<0.01. D) profiles of evolution of the amount of liver fat per mouse measured by MRI at week 8 (NASH) and week 10 (fibrosis). E) H&E histochemical analysis of mice treated with PHAR vs vehicle in control mice and in STAM mice together with oil red staining for determination of liver fat levels. F) levels of transcripts corresponding to the metabolism of fatty acids (Cpt1a, Scd1, Cd36 and Fasn). G) Levels of transcripts corresponding to pro-inflammatory cytokines (Tnf, Il6 and Infg) and anti-inflammatory (Il10 and Il4). For F and G, relative mRNA levels were determined by qRT-PCR and normalized by averaging Gapdh, Tbp, and β-actin. Statistical analysis was performed using a bidirectional ANOVA followed by a Bonferroni test to compare the differences between PHAR-treated mice vs vehicle-treated mice in the control and STAM models. *p<0.05; ***p<0.001.
After seeing the beneficial role of PHAR in the prevention of NASH, we analyzed its role in progression of liver damage. The progressive damage of hepatocytes is a consequence of their metabolic alteration and chronic low-grade inflammation and oxidative stress (FIG. 13A). We treated mice in the NASH stage (week 8), 5 days a week with an IP dose of 50 mg/kg PHAR until week 10. The analysis of fat accumulation was measured by MRI both at the initial point of treatment and at the end point (FIG. 13B). Vehicle-treated STAM mice underwent a progressive accumulation of lipids. […] Therefore, PHAR reduces low-grade chronic inflammation and liver fat accumulation.

[2] = STAM mice, week 8 to week 10, liver mRNA

O=C1[C@@H]2[C@H](Cc3c[nH]c4ccccc34)N[C@]3(C(=O)Nc4ccc(Cl)cc43)[C@@H]2C(=O)N1c1ccc2c(c1)OCCO2 [PHAR]
presence of PHAR in liver tissue (HPLC-MS) [1]: corresponded with the presence of the compound | HO1 levels in kidney (NRF2; IP 50 mg/kg daily for 5 days): not further increased | NRF2 and HO1 levels in brain (NRF2; IP 50 mg/kg daily for 5 days): not modified | NRF2 and HO-1 in liver (NRF2; IP 50 mg/kg daily for 5 days, 120 minutes after last administration): significant increase of NRF2 and HO-1 in liver | liver HO-1 levels (NRF2; single IP 50 mg/kg, 120 min): did not result in increased HO-1 levels | liver NRF2 levels (NRF2; single IP 50 mg/kg, 120 min): significant NRF2 accumulation | liver fat (oil red staining) (STAM mice (NAFLD); STAM mice, week 8 to week 10, IP 50 mg/kg): protection against liver fat accumulation | lipid accumulation in liver by MRI (STAM mice (NAFLD); STAM mice, week 8 to week 10, IP 50 mg/kg 5 days a week): significant protection against lipid accumulation | expression of Cpt1a (lipid catabolism) (STAM mice (NAFLD); [2]): increasing the expression of Cpt1a | expression of Fasn (lipid synthesis) (STAM mice (NAFLD); [2]): decrease in the expression of Fasn | expression of anti-inflammatory cytokines (STAM mice (NAFLD); [2]): promotes an increase in anti-inflammatory cytokines | expression of pro-inflammatory cytokines (STAM mice (NAFLD); [2]): attenuates the expression of pro-inflammatory cytokines | liver histology (H&E) (STAM mice (NAFLD); control and STAM mice, week 8 to week 10, IP 50 mg/kg): normal liver histology
